Source: article PMC5749684, “Tetrahydrocarbazoles are a novel class of potent P-type ATPase inhibitors with antifungal activity” (PLoS ONE, 2018)
In brackets after ≈: the same amount, converted by molar mass.

Tests used:
Na^+,K^+-ATPase = system: Na^+,K^+-ATPase; parameters: method as in PMID 19289472; settings: cited from earlier work
C. albicans cells = assay: Post-antifungal effect determination; assay type: cell-based, Candida albicans; settings: 1 h exposure of C. albicans; AMB 0.54 μM, VRC 2.8 μM, 6 and 8 20 μM
Description: The post-antifungal effect (PAFE) of antifungal drugs on C. albicans was determined as described by others, with modifications. Briefly, 2 × 10^6 CFU/mL C. albicans cells were incubated in 1 mL RPMI-1640 media for 1 h at 30°C with gentle agitation in the presence of amphotericin B (0.54 μM), voriconazole (2.8 μM) or tetrahydrocarbazole compound (20 μM). Cells were subsequently washed in RPMI media 3 times by centrifugation (3 minutes, 5,000 x g) and finally re-suspended in 1 mL fresh RPMI medium and incubated at 30°C for 24 h. At various time intervals, a 100 μL aliquot was removed, serially diluted (10-fold) in saline (0.9% NaCl), and 30 μL aliquots were spread on YPD agar. The agar plates were incubated at 30°C for 48 h and the number of CFU/mL of culture was determined. C. albicans cells treated with DMSO (1%, v/v) served as a control. The number of CFU/mL obtained at specified time intervals was plotted against time (h) following compound removal. An increase in the CFU/mL of culture signifies growth and multiplication of yeast cells. The duration required for the antifungal drug-treated cells to recover from the inhibitory effect of the drug as indicated by an increase in CFU/mL of culture is defined as the PAFE.

HepG2 cells = assay: Hep G2 viability assay (XTT); assay type: cell-based, human; settings: HepG2 proliferation, 72 h, XTT
Description: In each well of a 96 well tissue culture plate (Greiner, catalog number GR-655180) 10,000 human hepatocyte HepG2 cells (Sigma-Aldrich, catalog number 85011430) were plated in 200 μL growth media (EMEM (Sigma-Aldrich, catalog number M2279), 2 mM L-Glutamine (Biological Industries, catalog number 03-020-1B), 1% non-essential amino acids (Biosera, catalog number XC-E1154/100), 10% fetal bovine serum (Biological Industries, catalog number BI-04-007-1A)), and incubated overnight at 37°C and 5% CO2. The following day, fresh growth media plus 2 μL compound in DMSO was added. The plate was incubated for a further 72 h at 37°C and 5% CO2. The media was replaced with 100 μL freshly prepared 0.5 mg/mL XTT sodium salt solution (Sigma-Aldrich, catalog number X4251) in RPMI-1640 (Sigma-Aldrich, catalog number R7509) with 3.83 μg/mL phenazine methosulfate (Sigma-Aldrich, catalog number P9625) and incubated 2–3 h at 37°C and 5% CO2. The color reaction was measured on a Victor X5 plate reader (Perkin-Elmer) at OD450, and the half maximal effective concentration (EC50) was calculated indicating the potency of tetrahydrocarbazole derivatives to inhibit HepG2 cell growth. Tamoxifen (Sigma-Aldrich, catalog number 85256) was used as a positive control compound while DMSO served as a negative control.

Candida glabrata Cg003 = assay: microbe, parasite or virus in culture; assay type: cell-based; settings: Nakaseomyces glabratus, CG003, 24 h, read-out: Growth inhibition MIC Candida glabrata Cg003
Description: (§1) Fungal isolates were purchased from American Type Culture Collection, except for C. glabrata strain Cg003, which was kindly provided by Julius Subik, Comenius University in Bratislava, Slovak Republic. […] Saccharomyces cerevisiae (ATCC 9763), Candida albicans (ATCC 90028), Candida albicans (SC5314), Candida glabrata (ATCC 90030), Candida glabrata (Cg003) and Candida krusei (ATCC 6258) were grown in Sabouraud broth (40 g/L D-glucose, 10 g/L peptone, pH 5.6) or YPD (10 g/L yeast extract, 20 g/L Bacto-peptone, 20 g/L glucose) medium to mid log phase, aliquoted into 20% (v/v) glycerol and cryopreserved as stocks at -80°C. For each growth assay, cells from these stocks were diluted in sterile water to OD600 = 0.025, which corresponds to a final starting inoculum of 0.5–2.5 x 10^5 CFU/mL. Growth assays were carried out by pipetting 3 μL compound dissolved in DMSO, 100 μL cell suspension and 97 μL 2 x RPMI media (20.8 g/L RPMI-1640 (Sigma-Aldrich catalog number R6504) 330 mM MOPS, 36 g/L glucose) into a microtiter plate and incubating for 24 h at 34°C, followed by OD measurement at 490 nm.

Candida albicans SC5314 = assay: Fungal growth inhibition, C. albicans SC5314; assay type: cell-based; settings: MIC defined as 50% growth inhibition, 24 h, n = 3–6
Text: (§2) Fungal isolates were purchased from American Type Culture Collection, except for C. glabrata strain Cg003, which was kindly provided by Julius Subik, Comenius University in Bratislava, Slovak Republic. Cg003 is a clinical isolate, characterized to be resistant to fluconazole and itraconazole due to overexpression of the multidrug resistance efflux pumps Cdr1p and Cdr2p. Saccharomyces cerevisiae (ATCC 9763), Candida albicans (ATCC 90028), Candida albicans (SC5314), Candida glabrata (ATCC 90030), Candida glabrata (Cg003) and Candida krusei (ATCC 6258) were grown in Sabouraud broth (40 g/L D-glucose, 10 g/L peptone, pH 5.6) or YPD (10 g/L yeast extract, 20 g/L Bacto-peptone, 20 g/L glucose) medium to mid log phase, aliquoted into 20% (v/v) glycerol and cryopreserved as stocks at -80°C. For each growth assay, cells from these stocks were diluted in sterile water to OD600 = 0.025, which corresponds to a final starting inoculum of 0.5–2.5 x 10^5 CFU/mL. Growth assays were carried out by pipetting 3 μL compound dissolved in DMSO, 100 μL cell suspension and 97 μL 2 x RPMI media (20.8 g/L RPMI-1640 (Sigma-Aldrich catalog number R6504) 330 mM MOPS, 36 g/L glucose) into a microtiter plate and incubating for 24 h at 34°C, followed by OD measurement at 490 nm. The minimum inhibitory concentration (MIC) was defined as 50% growth inhibition of the microorganism as this measurement best represented the antifungal activity of the compounds. Standard errors were typically below 5%.

Candida krusei ATCC 6258 = assay: Fungal growth inhibition, C. krusei; assay type: cell-based; settings: Pichia kudriavzevii, ATCC6258; MIC defined as 50% growth inhibition, 24 h, n = 3–6
Text: as §2

[1] = system: Saccharomyces cerevisiae ATCC 9763; assay: Fungal growth inhibition, S. cerevisiae ATCC 9763; assay type: cell-based; settings: ATCC9763, MIC defined as 50% growth inhibition, 24 h, n = 3–6
Text: as §2

[2] = system: C. albicans (SC5314) cells; assay: Time-kill assay; assay type: cell-based, Candida albicans; settings: AMB 0.54 μM, VRC 2.8 μM, 6 and 8 20 μM
Description: C. albicans (SC5314) cells (1 x 10^5 CFU/mL) were incubated in 10 mL RPMI-1640 media at 30°C with gentle agitation (150 rpm) in the presence of amphotericin B (0.5 μM), voriconazole (2.8 μM) or tetrahydrocarbazole compound (20 μM). At the indicated time points (0, 3, 6, and 24 h), a 100 μL aliquot was removed, serially diluted (10 fold) in saline (0.9% NaCl), and 30 μL aliquots were spread on YPD agar. CFU were counted after incubation at 30°C for 48 h. C. albicans cells treated with DMSO (1%, v/v) served as a control. 50 CFU/mL was selected as the lower limit of quantitation.

[3] = system: Candida glabrata ATCC 90030; assay: Fungal growth inhibition, C. glabrata ATCC 90030; assay type: cell-based; settings: Nakaseomyces glabratus, ATCC90030; MIC defined as 50% growth inhibition, 24 h, n = 3–6
Text: as §2

[4] = system: HEK293 cells expressing the familial Alzheimer’s disease (FAD)-linked presenilin 1 mutation; parameters: method as in PMID 25514752; settings: HEK293 cells expressing FAD-linked presenilin 1 mutation; cited from earlier work
Candida albicans = assay: Fungal growth inhibition, C. albicans (library hits, Tables A and B); assay type: cell-based; settings: ATCC90028, read-out: Growth inhibition MIC Candida albicans
Description: (§3) The compound libraries were purchased from Enamine Ltd, Ukraine and Chembridge Corp, USA. Library screening was performed in 96 well plates format and each compound was screened in the ATP hydrolysis assay at a final concentration of 20 μM. DMSO was used to determine the maximal ATPase activity and a blank with ATP in absence of Pma1 protein was used to determine the level of spontaneous ATP hydrolysis and used to determine background level. The percentage of compound inhibition was evaluated by subtracting the blank from each data point and normalizing to maximal ATP hydrolysis activity.
as §1

[5] = biological target: T1, Saccharomyces cerevisiae Pma1 (Saccharomyces cerevisiae, UniProt P05030); assay: ATP hydrolysis inhibition, S. cerevisiae Pma1; assay type: biochemical; settings: ATP hydrolysis IC50 Saccharomyces cerevisiae Pma1, library hit compounds, n = 3
T1 construct: containing the full-length cDNA of the S. cerevisiae plasma membrane H^+-ATPase isoform PMA1; made in house; host or cells: Saccharomyces cerevisiae RS72
Description: as §3, with “activity. […] Pma1 inhibitory hit compounds (IC50 <20 μM) with antifungal activity on both S. cerevisiae and C. albicans (MIC <100 μM) were re-purchased and re-evaluated to confirm the potency and identity of the compound.” for “activity.”
Plasma membranes containing Pma1 were isolated from Saccharomyces cerevisiae RS72 cells containing the full-length cDNA of the S. cerevisiae plasma membrane H^+-ATPase isoform PMA1 under control of the PMA1 promoter as described.
ATPase activity was determined by measuring the amount of liberated phosphate from ATP hydrolysis. The ATPase assay was performed in 96 well plates in a final reaction volume of 60 μL. 0.1–0.2 μg/well of DOC extracted SERCA membrane or the Na^+,K^+-ATPase was used, while 1–2.5 μg/well was used of the Pma1 membrane preparation. Reactions, including protein membrane preparation and various concentrations of exogenously added compounds, were conducted in the following buffers; Pma1 buffer: 17.5 mM MOPS-NaOH pH 7, 7 mM MgSO4, 44 mM KNO3 (vacuolar ATPase inhibitor), 22 mM NaN3 (mitochondrial ATPase inhibitor), 0.22 mM Na2MoO4 (acid phosphatase inhibitor); SERCA buffer: 9 mM MOPS-NaOH pH 7, 2.7 mM MgCl2, 0.1 mM CaCl2 and 72 mM KCl. Na^+,K^+-ATPase buffer: 30 mM MOPS-NaOH pH 7, 40 mM NaCl, 4 mM MgCl2 and 20 mM KCl. Reactions were initiated by the addition of Na-ATP to a final concentration of 2.5 mM (Pma1 and Na^+,K^+-ATPase) or 5 mM (SERCA), followed by 30 minutes incubation at 30°C. […] Absorption was measured at 860 nm after additional 30 minutes incubation at RT.

Saccharomyces cerevisiae = assay: Fungal growth inhibition, S. cerevisiae (library hits, Table A); assay type: cell-based; settings: MIC defined as 50% growth inhibition, n = 3, baker's yeast
Description: as §3, §1

T1 sequence (P05030 whole entry, canonical isoform): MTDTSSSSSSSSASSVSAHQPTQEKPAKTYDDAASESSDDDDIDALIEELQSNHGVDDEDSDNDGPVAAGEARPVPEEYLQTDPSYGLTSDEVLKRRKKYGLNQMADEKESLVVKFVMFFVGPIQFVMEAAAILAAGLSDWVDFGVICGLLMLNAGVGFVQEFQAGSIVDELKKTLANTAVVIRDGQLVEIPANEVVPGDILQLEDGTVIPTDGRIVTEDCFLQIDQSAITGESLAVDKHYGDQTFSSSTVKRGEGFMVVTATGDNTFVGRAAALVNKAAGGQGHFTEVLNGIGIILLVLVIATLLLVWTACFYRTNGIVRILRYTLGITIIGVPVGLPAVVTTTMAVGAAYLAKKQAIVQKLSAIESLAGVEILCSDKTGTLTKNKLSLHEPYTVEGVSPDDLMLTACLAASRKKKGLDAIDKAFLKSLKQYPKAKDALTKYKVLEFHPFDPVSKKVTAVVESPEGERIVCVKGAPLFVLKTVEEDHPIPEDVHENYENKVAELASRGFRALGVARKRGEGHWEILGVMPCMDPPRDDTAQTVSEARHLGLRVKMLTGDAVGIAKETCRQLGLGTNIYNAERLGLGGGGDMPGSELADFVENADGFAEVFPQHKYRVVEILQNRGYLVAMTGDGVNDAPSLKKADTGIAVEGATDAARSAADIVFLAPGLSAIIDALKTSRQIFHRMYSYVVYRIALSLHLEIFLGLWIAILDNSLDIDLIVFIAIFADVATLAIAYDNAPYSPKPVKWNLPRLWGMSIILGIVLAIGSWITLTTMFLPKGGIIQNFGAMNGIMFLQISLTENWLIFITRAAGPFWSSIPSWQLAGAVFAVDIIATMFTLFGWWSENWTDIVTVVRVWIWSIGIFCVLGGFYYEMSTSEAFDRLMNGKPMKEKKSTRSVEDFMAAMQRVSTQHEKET

Compound | MIC (Candida glabrata Cg003) [µM] | MIC (Candida albicans SC5314) [µM] | MIC (Candida krusei ATCC 6258) [µM] | MIC [1] [µM] | MIC [3] [µM] | MIC (Candida albicans) [µM] | IC50 [5] [µM] | MIC (Saccharomyces cerevisiae) [µM] | also measured
CC(=O)C1=C(O)[C@@H]2[C@H]3c4c[nH]c5cccc(c45)C[C@H]3C(C)(C)N2C1=O [CPA, cyclopiazonic acid] |  |  |  |  |  |  |  |  | Activity against Na^+,K^+-ATPase (in words) (Na^+,K^+-ATPase): inactivity
C[C@@H](c1ncncc1F)[C@](O)(Cn1cncn1)c1ccc(F)cc1F [VRC, voriconazole, reference compound] | 6.11 ± 2.64 (≈ 2.13 µg/mL) | 0.03 ± 0.02 (≈ 0.0105 µg/mL) | 1.02 ± 0.7 (≈ 0.356 µg/mL) | 0.27 ± 0.19 (≈ 0.0943 µg/mL) | 0.61 ± 0.28 (≈ 0.213 µg/mL) |  |  |  | Post-antifungal effect (PAFE) (C. albicans cells): no significant delay in growth; EC50 (HepG2 cells; Homo sapiens): > 50 µM; Fungicidal or fungistatic activity in time-kill (in words) [2]: fungistatic activity after both 3 and 24 h of incubation
Brc1ccc2[nH]c3c(c2c1)CCCC3NCc1ccccc1 (centres unmarked) [Compound 2] |  |  |  |  |  | 10 (≈ 3.55 µg/mL) | 12.9 ± 3.2 | 12 (≈ 4.26 µg/mL) | Effect on enhanced calcium release from the endoplasmic reticulum (in words) [4]: reduce the enhanced calcium release
C[C@@H]1[C@H](O)[C@@H](C)/C=C/C=C/C=C/C=C/C=C/C=C/C=C/[C@H](O[C@@H]2O[C@H](C)[C@@H](O)[C@H](N)[C@@H]2O)C[C@@H]2O[C@](O)(C[C@@H](O)C[C@@H](O)[C@H](O)CC[C@@H](O)C[C@@H](O)CC(=O)O[C@H]1C)C[C@H](O)[C@H]2C(=O)O [AMB, amphotericin B, reference compound] | 0.18 ± 0.08 (≈ 0.166 µg/mL) | 0.1 ± 0.04 (≈ 0.0924 µg/mL) | 0.44 ± 0.34 (≈ 0.407 µg/mL) | 0.02 ± 0.01 (≈ 0.0185 µg/mL) | 0.1 ± 0.04 (≈ 0.0924 µg/mL) |  |  |  | Post-antifungal effect (PAFE) (C. albicans cells): 7 h; EC50 (HepG2 cells): 0.69 ± 0.01 µM; EC50 (HepG2 cells; Homo sapiens, HepG2, 72 h): < 1 µM; Fungicidal or fungistatic activity in time-kill (in words) [2]: fungicidal after 3 h exposure
Cc1ccc2[nH]c3c(c2c1)CCCC3NCc1ccc(Cl)cc1 (centres unmarked) [Compound 3] |  |  |  |  |  | 5 (≈ 1.62 µg/mL) | 14.8 ± 3.5 | 12 (≈ 3.9 µg/mL) | 
Brc1ccc2[nH]c3c(c2c1)CCCC3NCCc1ccccc1 (centres unmarked) [Compound 1] |  |  |  |  |  | 20 (≈ 7.39 µg/mL) | 18.2 ± 4.7 | 10 (≈ 3.69 µg/mL) | Effect on enhanced calcium release from the endoplasmic reticulum (in words) [4]: reduce the enhanced calcium release
OC(Cn1cncn1)(Cn1cncn1)c1ccc(F)cc1F [FLC, fluconazole, reference compound] | > 208 | 0.75 ± 0.48 (≈ 0.23 µg/mL) | 67.2 ± 27 (≈ 20.6 µg/mL) | 20.7 ± 8.68 (≈ 6.33 µg/mL) | 26.1 (≈ 8 µg/mL) |  |  |  | EC50 (HepG2 cells; Homo sapiens): > 50 µM
